Like-named read-outs stand apart in the source and are kept apart here.
Assays:
oxidized forms of rFSH = assay: Oxidized forms of rFSH by RP-HPLC on crude harvest of CHO culture in serum-free medium with antioxidant; type: cell-based, human; conditions: for ranking of antioxidants for obtaining low levels of rFSH oxidized forms: Runs 1 and 2, Table II; for antioxidant quality from analyses of oxidized rFSH forms: antioxidant added to the culture medium, runs 3 to 5
Description: (§1) All experiments were performed with a CHO cell line expressing both subunits of human FSH. The produced protein is a dimeric gonadotropin further referred to as rFSH. The alpha subunit corresponds to SwissProt Accession No. P01215 and the beta subunit corresponds to SwissProt Accession No. P01225.
The medium used for cell cultivation was a basic serum-free medium (SFM) designed for cultivation of CHO cells. The SFM medium was supplemented with the antioxidant to be tested as detailed in Example 3.
(§2) At least 2.4.10^9 viable rFSH-producing cells were transferred to a 15 L bioreactor with an effective working volume of 11 L (newMBR, Zürich) comprising microcarriers. Immediately after seeding followed a batch phase that lasted for two or three days. The bioreactor was then continuously fed with SFM to a dilution rate of 1 day^−1 and to a perfusion rate at 11 L·day)^−1.
Growth phase and production phase were performed at the same pH and temperature (37° C., pH=7). The Dissolved Oxygen (DO) was maintained at 50% air saturation during the whole run.
Oxidized forms were determined by RP-HPLC on crude harvest as described by Bassett and Driebergen (Bassett and Driebergen, 2005).
SFM was supplemented with several antioxidant or combination of antioxidants in order to reach the final concentration shown in Table II. Each antioxidant or combination of antioxidants was tested for a period of about ten days. The first day of the test, the volume of antioxidant solution necessary to reach the set-point was added. Every day thereafter, a certain amount of antioxidant was washed out from the bioreactor by perfusion and replaced by one time addition (for a dilution rate of 1 d^−1, 63.2% of the bioreactor volume was renewed every 24 h and this represents the amount of antioxidant to be replaced every day). At the end of the test period, the antioxidant was washed out from the bioreactor by perfusion, and replaced by another antioxidant to be tested.
The percentage of oxidized forms of rFSH was measured at the end of each test (table II).
One run (run 3) was performed to test various concentrations of L-glutathione (from 1 to 20 mg/L), and one run (run 4) was performed to test various concentrations of L-methionine (from 0.25 to 3 g/L) and. […] Working Day zero (WDO) is defined as the day during which the bioreactor is seeded. Production Day zero (PDO) is defined as the day during which the cell culture process is switch from growth phase to production phase. In addition, a run was performed without varying the antioxidant concentration. In this run, the L-methionine was added at 250 mg/L from the beginning (run 5). For all runs, the percentage of oxidized forms of rFSH was measured regularly (table IV).

[1] = test system: CHO cell line expressing both subunits of human FSH; assay: Total viable cells ratio (TVC ratio) during antioxidant test period; type: cell-based, Chinese Hamster; conditions: end of test/start of test, >=1.0 = no toxic effect
Description: as §1, §2
The total viable cell concentration is defined as the sum of the concentration of cells attached on microcarriers and the concentration of viable cells in suspension.
The Total Viable Cells Ratio (TVC Ratio) for was calculated as follows: [total viable cell concentration, end of test]/[total viable cell concentration, start of test] wherein the start of test is defined as the day at which a new antioxidant is introduced in the culture, and the end of test is defined as the day before the next antioxidant is introduced in the culture.
(§3) The total viable cell concentration, the GCR and the rFSH titers were measured daily.

[2] = test system: CHO cell line expressing both subunits of human FSH
Description: The rFSH titer was measured by an immunofluorimetric assay, using the Delphia hFSH kit from Wallac-ADL (Cat. No. A017-201).
The glucose consumption rate (GCR), expressed in gram per liter and per day, was calculated as follows: GCR=(G0−Gt)Dt+(Gt−1−Gt)
G stands for “Glucose concentration” and D stands for “dilution rate”. The indexes refer to the following:
as §3

N[C@@H](CCC(=O)N[C@@H](CS)C(=O)NCC(=O)O)C(=O)O [L-glutathione]
oxidized forms (normalized value) (oxidized forms of rFSH; Run 1, 3 mg/L, measured WD50, divided by 23.4% (L-cysteine 280 mg/L, run 2)): 0.61
% of oxidized forms (oxidized forms of rFSH; Run 1, mean concentration 3 mg/L, tested WD40 to WD50, measured WD50): 14.2%
decrease of percentage of oxidized forms (oxidized forms of rFSH; Run 3, 2.5 mg/L, compared to run 1 and run 2 with L-cysteine as antioxidant): around 35%
% oxidized forms (oxidized forms of rFSH; Run 3, mean concentration 1 mg/L, measured WD19): 18.31%
% oxidized forms (oxidized forms of rFSH; Run 3, mean concentration 2.5 mg/L, measured WD28): 14.26%
% oxidized forms (oxidized forms of rFSH; Run 3, mean concentration 5 mg/L, measured WD40): 23.99%
ranking of antioxidants for obtaining low levels of rFSH oxidized forms (oxidized forms of rFSH): best antioxidants for obtaining low levels of rFSH oxidized forms
antioxidant quality from analyses of oxidized rFSH forms (oxidized forms of rFSH): good antioxidant
TVC Ratio ([1]; Run 1, 3 mg/L, WD40 to WD50): 1.2
impact on viability of the cells, metabolism and productivity patterns [2]: did not have any major impact

OCCS [2-mercaptoethanol]
oxidized forms (normalized value) (oxidized forms of rFSH; Run 1, 10 mg/L, measured WD59, divided by 23.4% (L-cysteine 280 mg/L, run 2)): 0.53
% of oxidized forms (oxidized forms of rFSH; Run 1, mean concentration 10 mg/L, tested WD50 to WD60, measured WD59): 12.3%
ranking of antioxidants for obtaining low levels of rFSH oxidized forms (oxidized forms of rFSH): best antioxidants for obtaining low levels of rFSH oxidized forms
TVC Ratio ([1]; Run 1, 10 mg/L, WD50 to WD60): 0.8

CC(=O)N[C@@H](CS)C(=O)O [N-acetyl-L-cysteine]
oxidized forms (normalized value) (oxidized forms of rFSH; Run 2, 260 mg/L, measured WD38, divided by 23.4% (L-cysteine 280 mg/L, run 2)): 0.77
% of oxidized forms (oxidized forms of rFSH; Run 2, mean concentration 260 mg/L, tested WD30 to WD40, measured WD38): 18.1%
TVC Ratio ([1]; Run 2, 260 mg/L, WD30 to WD40): 1.3

O=C1O[C@H]([C@@H](O)CO)C(O)=C1O [L-ascorbic acid]
oxidized forms (normalized value) (oxidized forms of rFSH; Run 1, 10 mg/L, measured WD30, divided by 23.4% (L-cysteine 280 mg/L, run 2)): 0.74
% of oxidized forms (oxidized forms of rFSH; Run 1, mean concentration 10 mg/L, tested WD20 to WD30, measured WD30): 17.3%
TVC Ratio ([1]; Run 1, 10 mg/L, WD20 to WD30): 1.3

N[C@@H](CS)C(=O)O [L-cysteine, reference compound]
oxidized forms (normalized value) (oxidized forms of rFSH; Run 1, 280 mg/L, measured WD20, divided by 23.4% (L-cysteine 280 mg/L, run 2)): 0.92
% of oxidized forms (oxidized forms of rFSH; Run 1, mean concentration 280 mg/L, tested WD10 to WD20, measured WD20): 21.5%
oxidized forms (normalized value) (oxidized forms of rFSH; Run 2, 280 mg/L, measured WD20, the reference itself (23.4%)): 1.00
oxidized forms (normalized value) (oxidized forms of rFSH; Run 2, 350 mg/L, measured WD50, divided by 23.4% (L-cysteine 280 mg/L, run 2)): 0.88
% of oxidized forms (oxidized forms of rFSH; Run 2, mean concentration 280 mg/L, tested WD0 to WD20, measured WD20): 23.4%
% of oxidized forms (oxidized forms of rFSH; Run 2, mean concentration 350 mg/L, tested WD40 to WD50, measured WD50): 20.5%

CSCC[C@H](N)C(=O)O [L-methionine]
oxidized forms (normalized value) (oxidized forms of rFSH; Run 1, 186 mg/L, measured WD38, divided by 23.4% (L-cysteine 280 mg/L, run 2)): 0.61
oxidized forms (normalized value) (oxidized forms of rFSH; Run 1, 734 mg/L, measured WD70, divided by 23.4% (L-cysteine 280 mg/L, run 2)): 0.60
% of oxidized forms (oxidized forms of rFSH; Run 1, mean concentration 186 mg/L, tested WD30 to WD40, measured WD38): 14.3%
% of oxidized forms (oxidized forms of rFSH; Run 1, mean concentration 734 mg/L, tested WD60 to WD70, measured WD70): 14.0%
% oxidized forms (oxidized forms of rFSH; Run 4, mean concentration 250 mg/L, measured WD19): 15.37%
% oxidized forms (oxidized forms of rFSH; Run 4, mean concentration 500 mg/L, measured WD28): 14.26%
% oxidized forms (oxidized forms of rFSH; Run 4, mean concentration 1000 mg/L, measured WD40): 13.56%
% oxidized forms (oxidized forms of rFSH; Run 4, mean concentration 2000 mg/L, measured WD49): 9.77%
% oxidized forms (oxidized forms of rFSH; Run 4, mean concentration 3000 mg/L, measured WD59): 12.66%
% oxidized forms (oxidized forms of rFSH; Run 5, 250 mg/L from the beginning, measured WD16-17): 16.91%
% oxidized forms (oxidized forms of rFSH; Run 5, 250 mg/L from the beginning, measured WD20-21): 14.45%
% oxidized forms (oxidized forms of rFSH; Run 5, 250 mg/L from the beginning, measured WD22-23): 12.94%
% oxidized forms (oxidized forms of rFSH; Run 5, 250 mg/L from the beginning, measured WD24-25): 12.16%
% oxidized forms (oxidized forms of rFSH; Run 5, 250 mg/L from the beginning, measured WD26-27): 10.54%
% oxidized forms (oxidized forms of rFSH; Run 5, 250 mg/L from the beginning, measured WD28-29): 12.83%
% oxidized forms (oxidized forms of rFSH; Run 5, 250 mg/L from the beginning, measured WD30-31): 13.21%
decrease of average percentage of oxidized forms (oxidized forms of rFSH; Run 5, 250 mg/L, compared to run 1 and run 2 with L-cysteine as antioxidant): around 40%
ranking of antioxidants for obtaining low levels of rFSH oxidized forms (oxidized forms of rFSH): best antioxidants for obtaining low levels of rFSH oxidized forms
antioxidant quality from analyses of oxidized rFSH forms (oxidized forms of rFSH): good antioxidant
TVC Ratio ([1]; Run 1, 186 mg/L, WD30 to WD40): 1.4
TVC Ratio ([1]; Run 1, 734 mg/L, WD60 to WD70): 1.0
impact on viability of the cells, metabolism and productivity patterns ([2]; in the range of concentration tested (runs 3 to 5), data not shown): did not have any major impact

From US8093052B2, “Serum-free culture medium for the production of recombinant gonadotropins” (Ares Trading S.A., priority 2005, dated 2012)
